Consider 7 compounds from PubChem BioAssay AID588370 (NMMLSC, 2011).

The source made the active and inactive calls.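 Rule for the calls: active = cytotoxic compounds, leaving cell viability under 88%; inactive = viability at or above 88%.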

This test has as its system U937 viability, trypan blue exclusion, 24 h. Nature of the test: U937 cell viability loss by dye exclusion – trypan blue, cytotoxicity control for VLA-4 allosteric modulator project (AID 588370). As to conditions: at 10 µM; hits give low values.
One may read the viability as a read-out of living cells in per cent, often relative to untreated cells. On to `CN(C)CCOc1ccc(-c2c(-c3ccccc3)sc3ccccc23)cc1`, for which the viability was 97% (inactive). As to `c1ccc(-c2sc3ccccc3c2-c2ccc(OCCN3CCCC3)cc2)cc1`, the viability is 97% (inactive).

Turning to `COc1cccc(-c2sc3ccccc3c2-c2ccc(OCCN(C)C)cc2)c1`, the viability was 97% (inactive).

For the compound `COc1cccc(-c2sc3ccccc3c2-c2ccc(OCCN3CCCC3)cc2)c1`, the viability was 84%. Under `COc1ccc(-c2sc3ccccc3c2-c2ccc(OCCN(C)C)cc2)cc1` stands 96% (inactive); under `c1ccc2c(-c3ccc(OCCN4CCCCC4)cc3)c(-c3ccsc3)sc2c1`, 96% (inactive); under `c1ccc2c(-c3ccc(OCCN4CCCC4)cc3)c(-c3ccsc3)sc2c1`, 93% (inactive).
